Results as given in PMC9516332 (Frontiers in Oncology, 2022).
Read-outs that look alike come from different tables or passages of the source.

How the values were obtained:
AP-1060 (ETV6-NTRK3) = assay: Cell viability assay; conditions: read-out: IC50 in cell proliferation assay
[1] = target: T1, panel of 255 wild-type kinases (Homo sapiens, UniProt Q96PF2); assay: Kinase panel profiling at 1 µmol/L (MSA or IMAP), percentage inhibition; type: biochemical; conditions: kinase TSSK2; 1 µmol/L single concentration; read-out: %-inhibition at 1 µmol/L, TSSK2
T1 sequence (Q96PF2 1-358): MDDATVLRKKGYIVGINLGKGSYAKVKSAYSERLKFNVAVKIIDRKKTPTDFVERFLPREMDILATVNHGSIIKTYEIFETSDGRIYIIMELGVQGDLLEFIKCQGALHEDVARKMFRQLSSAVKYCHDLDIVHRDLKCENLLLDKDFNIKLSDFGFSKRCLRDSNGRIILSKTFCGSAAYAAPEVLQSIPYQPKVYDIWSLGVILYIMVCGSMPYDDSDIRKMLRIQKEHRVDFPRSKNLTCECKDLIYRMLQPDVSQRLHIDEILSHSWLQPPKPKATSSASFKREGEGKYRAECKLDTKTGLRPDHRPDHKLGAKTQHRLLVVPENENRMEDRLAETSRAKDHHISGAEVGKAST

[2] = target: panel of 255 wild-type kinases (Homo sapiens, UniProt Q9Y463); assay: as above; type: biochemical; conditions: kinase DYRK1B; 1 µmol/L single concentration; read-out: %-inhibition at 1 µmol/L, DYRK1B
[3] = target: panel of 255 wild-type kinases (Homo sapiens, UniProt P08581); assay: as above; type: biochemical; conditions: MET; 1 µmol/L single concentration
[4] = target: panel of 255 wild-type kinases (Homo sapiens, UniProt P31749); assay: as above; type: biochemical; conditions: AKT1 kinase assay; 1 µmol/L single concentration; read-out: %-inhibition AKT1
134 cancer cell lines = assay: Cell viability assay (ATPlite, 72 hours), IC50 on cancer cell line panel

SMILES: C[C@H]1Oc2cc(cnc2N)-c2c(nn(C)c2C#N)CN(C)C(=O)c2ccc(F)cc21 [lorlatinib]
- IC50 (AP-1060 (ETV6-NTRK3)): 10.7 µM
- inhibition at 1 µM [1]: 56%
- inhibition at 1 µM [2]: -2.8%
- inhibition at 1 µM [3]: 4.66%
- inhibition at 1 µM [4]: -4%
- IC50 (134 cancer cell lines; HEC-6, read-out: IC50 in cell proliferation assay): > 31.6 µM
- IC50 (134 cancer cell lines; Homo sapiens, 769-P, read-out: IC50 in cell proliferation assay): > 31.6 µM
- IC50 (134 cancer cell lines; Homo sapiens, 786-0, read-out: IC50 in cell proliferation assay): > 31.6 µM
- IC50 (134 cancer cell lines; Homo sapiens, A 172, read-out: IC50 in cell proliferation assay): > 31.6 µM
- IC50 (134 cancer cell lines; Homo sapiens, A204, read-out: IC50 in cell proliferation assay): > 31.6 µM
- IC50 (134 cancer cell lines; Homo sapiens, A498, read-out: IC50 in cell proliferation assay): > 31.6 µM
- IC50 (134 cancer cell lines; Homo sapiens, A549, read-out: IC50 in cell proliferation assay): 2.3 µM
- IC50 (134 cancer cell lines; Homo sapiens, A704, read-out: IC50 in cell proliferation assay): > 31.6 µM
- IC50 (134 cancer cell lines; Homo sapiens, A-375, read-out: IC50 in cell proliferation assay): 18.8 µM
- IC50 (134 cancer cell lines; Homo sapiens, A-427, read-out: IC50 in cell proliferation assay): 27.4 µM
- IC50 (134 cancer cell lines; Homo sapiens, ACHN, read-out: IC50 in cell proliferation assay): > 31.6 µM
- IC50 (134 cancer cell lines; Homo sapiens, AN3-CA, read-out: IC50 in cell proliferation assay): > 31.6 µM
- IC50 (134 cancer cell lines; Homo sapiens, ASPC1, read-out: IC50 in cell proliferation assay): 28.2 µM
- IC50 (134 cancer cell lines; Homo sapiens, AU565, read-out: IC50 in cell proliferation assay): > 31.6 µM
- IC50 (134 cancer cell lines; Homo sapiens, BT-20, read-out: IC50 in cell proliferation assay): > 31.6 µM
- IC50 (134 cancer cell lines; Homo sapiens, BT-474, read-out: IC50 in cell proliferation assay): > 31.6 µM
- IC50 (134 cancer cell lines; Homo sapiens, BT-549, read-out: IC50 in cell proliferation assay): > 31.6 µM
- IC50 (134 cancer cell lines; Homo sapiens, BXPC-3, read-out: IC50 in cell proliferation assay): 0.049 µM
- IC50 (134 cancer cell lines; Homo sapiens, C-33-A, read-out: IC50 in cell proliferation assay): > 31.6 µM
- IC50 (134 cancer cell lines; Homo sapiens, CAL-27, read-out: IC50 in cell proliferation assay): > 31.6 µM
- IC50 (134 cancer cell lines; Homo sapiens, CCF-STTG1, read-out: IC50 in cell proliferation assay): > 31.6 µM
- IC50 (134 cancer cell lines; Homo sapiens, CCRF-CEM, read-out: IC50 in cell proliferation assay): > 31.6 µM
- IC50 (134 cancer cell lines; Homo sapiens, COLO 205, read-out: IC50 in cell proliferation assay): 11.9 µM
- IC50 (134 cancer cell lines; Homo sapiens, COLO-829, read-out: IC50 in cell proliferation assay): > 31.6 µM
- IC50 (134 cancer cell lines; Homo sapiens, DLD-1, read-out: IC50 in cell proliferation assay): > 31.6 µM
- IC50 (134 cancer cell lines; Homo sapiens, DU-145, read-out: IC50 in cell proliferation assay): 25.9 µM
- IC50 (134 cancer cell lines; Homo sapiens, DU-4475, read-out: IC50 in cell proliferation assay): 25.9 µM
- IC50 (134 cancer cell lines; Homo sapiens, Daoy, read-out: IC50 in cell proliferation assay): > 31.6 µM
- IC50 (134 cancer cell lines; Homo sapiens, DoTc2-4510, read-out: IC50 in cell proliferation assay): 0.024 µM
- IC50 (134 cancer cell lines; Homo sapiens, EOL1, read-out: IC50 in cell proliferation assay): 9.05 µM
- IC50 (134 cancer cell lines; Homo sapiens, FaDu, read-out: IC50 in cell proliferation assay): > 31.6 µM
- IC50 (134 cancer cell lines; Homo sapiens, G-361, read-out: IC50 in cell proliferation assay): > 31.6 µM
- IC50 (134 cancer cell lines; Homo sapiens, HCC827, read-out: IC50 in cell proliferation assay): 17.1 µM
- IC50 (134 cancer cell lines; Homo sapiens, HCC4006, read-out: IC50 in cell proliferation assay): 17.8 µM
- IC50 (134 cancer cell lines; Homo sapiens, HCT-15, read-out: IC50 in cell proliferation assay): > 31.6 µM
- IC50 (134 cancer cell lines; Homo sapiens, HCT-116, read-out: IC50 in cell proliferation assay): 23.8 µM
- IC50 (134 cancer cell lines; Homo sapiens, HEC-1, read-out: IC50 in cell proliferation assay): 9.24 µM
- IC50 (134 cancer cell lines; Homo sapiens, HEC-1B, read-out: IC50 in cell proliferation assay): > 31.6 µM
- IC50 (134 cancer cell lines; Homo sapiens, HL-60, read-out: IC50 in cell proliferation assay): 28.1 µM
- IC50 (134 cancer cell lines; Homo sapiens, HT, read-out: IC50 in cell proliferation assay): > 31.6 µM
- IC50 (134 cancer cell lines; Homo sapiens, HT-1080, read-out: IC50 in cell proliferation assay): > 31.6 µM
- IC50 (134 cancer cell lines; Homo sapiens, Hs746T, read-out: IC50 in cell proliferation assay): 9.43 µM
- IC50 (134 cancer cell lines; Homo sapiens, Hs-578T, read-out: IC50 in cell proliferation assay): > 31.6 µM
- IC50 (134 cancer cell lines; Homo sapiens, HuTu80, read-out: IC50 in cell proliferation assay): 7.5 µM
- IC50 (134 cancer cell lines; Homo sapiens, J82, read-out: IC50 in cell proliferation assay): > 31.6 µM
- IC50 (134 cancer cell lines; Homo sapiens, Jurkat E6.1, read-out: IC50 in cell proliferation assay): > 31.6 µM
- IC50 (134 cancer cell lines; Homo sapiens, K562, read-out: IC50 in cell proliferation assay): 9.61 µM
- IC50 (134 cancer cell lines; Homo sapiens, KATO III, read-out: IC50 in cell proliferation assay): > 31.6 µM
- IC50 (134 cancer cell lines; Homo sapiens, KG-1, read-out: IC50 in cell proliferation assay): 9.21 µM
- IC50 (134 cancer cell lines; Homo sapiens, KLE, read-out: IC50 in cell proliferation assay): > 31.6 µM
- IC50 (134 cancer cell lines; Homo sapiens, KMS-11, read-out: IC50 in cell proliferation assay): 17.7 µM
- IC50 (134 cancer cell lines; Homo sapiens, KU812, read-out: IC50 in cell proliferation assay): > 31.6 µM
- IC50 (134 cancer cell lines; Homo sapiens, Kasumi 1, read-out: IC50 in cell proliferation assay): > 31.6 µM
- IC50 (134 cancer cell lines; Homo sapiens, LC-2-ad, read-out: IC50 in cell proliferation assay): 20.4 µM
- IC50 (134 cancer cell lines; Homo sapiens, LNCaP-Clone-FGC, read-out: IC50 in cell proliferation assay): > 31.6 µM
